Laboratory results as given in patent US20230131899A1, “INHIBITORS OF MICROBIALLY INDUCED AMYLOID” (Axial Therapeutics, Inc., priority 2020, published 2023).
Like-named read-outs stand apart in the source and are kept apart here.

Tested on: CsgA gene expression (csgBAC promoter-GFP reporter) in E. coli UTI89
Assay: In vitro live cell fluorescent reporter assay of CsgA transcription (Reporter Assay)
Format: cell-based
Settings: Escherichia coli
Summary of the method: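 Compounds at 0.14–100 μM (1% DMSO final) incubated 20 h at 27 °C in YESCA broth with UTI89 carrying a single-copy GFP reporter under the csgBAC intergenic promoter region, inoculum OD600 0.003. Fluorescence normalized to vehicle wells gave IC50 and 50%-of-vehicle concentration; OD600 reduction >10% flagged growth impact.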

[1] = read-out: Reporter Assay Abs IC50 (activity range), median Abs IC50 in the CsgA reporter assay, class symbol
[2] = read-out: Reporter Assay Abs IC50 (μM), median Abs IC50 in the CsgA reporter assay, N/A = maximum expression reduction is <50% of control
[3] = read-out: Reporter Assay Abs IC50, activity range, class symbol

`Cc1c(Cc2cccc3ccccc23)c(-c2cccc(C(F)(F)F)c2)c2n(c1=O)C(C(=O)O)CN(C)S2(=O)=O` (centres unmarked) [Compound 068, 2,7-dimethyl-8-(naphthalen-1-ylmethyl)-6-oxo-9-(3-(trifluoromethyl)phenyl)-3,4-dihydro-2H,6H-pyrido[1,2-e][1,2,5]thiadiazine-4-carboxylic acid 1,1-dioxide] showed an IC50 [1] greater than 10 µM and an IC50 [2] of 11.1 µM.

`O=C(O)C1CN(CCC2CCCCC2)c2c(-c3cccc(C(F)(F)F)c3)c(Cc3cccc4ccccc34)c(Cl)c(=O)n21` (centres unmarked) [Compound 207, 6-chloro-1-(2-cyclohexylethyl)-7-(naphthalen-1-ylmethyl)-5-oxo-8-(3-(trifluoromethyl)phenyl)-1,2,3,5-tetrahydroimidazo[1,2-a]pyridine-3-carboxylic acid] showed an IC50 [2] of 0.7 µM and an IC50 [3] of less than 1.3 µM.

`CNC(=O)CCCN1CC(C(=O)O)n2c(c(-c3cccc(C(F)(F)F)c3)c(Cc3cccc4ccccc34)cc2=O)S1(=O)=O` (centres unmarked) [Compound 037, 2-(4-(methylamino)-4-oxobutyl)-8-(naphthalen-1-ylmethyl)-6-oxo-9-(3-(trifluoromethyl)phenyl)-3,4-dihydro-2H,6H-pyrido[1,2-e][1,2,5]thiadiazine-4-carboxylic acid 1,1-dioxide] was tested, and the IC50 [1] was greater than 10 µM and the IC50 [2] was 23.6 µM.

For `CNC(=O)C1CN(C)S(=O)(=O)c2c(-c3cccc(C(F)(F)F)c3)c(Cc3cccc4ccccc34)cc(=O)n21` (centres unmarked) [Compound 031, N,2-dimethyl-8-(naphthalen-1-ylmethyl)-6-oxo-9-(3-(trifluoromethyl)phenyl)-3,4-dihydro-2H,6H-pyrido[1,2-e][1,2,5]thiadiazine-4-carboxamide 1,1-dioxide], the IC50 [1] was 1.3 to 4.5 µM and the IC50 [2] was 4.2 µM.

With `CCCCCN1CC(C(=O)O)n2c(c(-c3cccc(C(F)(F)F)c3)c(Cc3cccc4ccccc34)cc2=O)S1(=O)=O` (single isomer, unassigned) [Compound 025a, 8-(naphthalen-1-ylmethyl)-6-oxo-2-pentyl-9-(3-(trifluoromethyl)phenyl)-3,4-dihydro-2H,6H-pyrido[1,2-e][1,2,5]thiadiazine-4-carboxylic acid 1,1-dioxide] the IC50 [1] was 1.3 to 4.5 µM and the IC50 [2] was 2 µM.

With `COc1ccc(CN2CC(C(=O)O)n3c2c(-c2cccc(C(F)(F)F)c2)c(Cc2cccc4ccccc24)c(Cl)c3=O)cc1` (centres unmarked) [Compound 192, 6-chloro-1-(4-methoxybenzyl)-7-(naphthalen-1-ylmethyl)-5-oxo-8-(3-(trifluoromethyl)phenyl)-1,2,3,5-tetrahydroimidazo[1,2-a]pyridine-3-carboxylic acid] the IC50 [2] was 2.5 µM and the IC50 [3] was 1.3 to 4.5 µM.

For `CCCN1CC(C(=O)O)n2c(c(-c3cccc(C(F)(F)F)c3)c(Cc3cccc4ccccc34)c(Cl)c2=O)S1(=O)=O` (centres unmarked) [Compound 142, 7-chloro-8-(naphthalen-1-ylmethyl)-6-oxo-2-propyl-9-(3-(trifluoromethyl)phenyl)-3,4-dihydro-2H,6H-pyrido[1,2-e][1,2,5]thiadiazine-4-carboxylic acid 1,1-dioxide], the IC50 [2] was 2.3 µM and the IC50 [3] was 1.3 to 4.5 µM.

In the case of `Cn1c(=O)c2c(ncn2CCCCCN2CC(C(=O)O)n3c(c(-c4cccc(C(F)(F)F)c4)c(Cc4cccc5ccccc45)cc3=O)S2(=O)=O)n(C)c1=O` (centres unmarked) [Compound 034, 2-(5-(1,3-dimethyl-2,6-dioxo-1,2,3,6-tetrahydro-7H-purin-7-yl)pentyl)-8-(naphthalen-1-ylmethyl)-6-oxo-9-(3-(trifluoromethyl)phenyl)-3,4-dihydro-2H,6H-pyrido[1,2-e][1,2,5]thiadiazine-4-carboxylic acid 1,1-dioxide], the IC50 [1] is reported as 1.3 to 4.5 µM and the IC50 [2] is reported as 2.8 µM.

`Cn1c(=O)c2c(nc(CCCCCN3CC(C(=O)O)n4c(c(-c5cccc(C(F)(F)F)c5)c(Cc5cccc6ccccc56)cc4=O)S3(=O)=O)n2C)n(C)c1=O` (centres unmarked) [Compound 045, 8-(naphthalen-1-ylmethyl)-6-oxo-9-(3-(trifluoromethyl)phenyl)-2-(5-(1,3,7-trimethyl-2,6-dioxo-2,3,6,7-tetrahydro-1H-purin-8-yl)pentyl)-3,4-dihydro-2H,6H-pyrido[1,2-e][1,2,5]thiadiazine-4-carboxylic acid 1,1-dioxide] was tested, and the IC50 [1] was 1.3 to 4.5 µM and the IC50 [2] was 1.3 µM.

With `CCCN1CC(C(=O)O)n2c(c(-c3cccc(C(F)(F)F)c3)c(Cc3cccc4ccccc34)c(NC(=O)C(C)C)c2=O)S1(=O)=O` (centres unmarked) [Compound 152, 7-isobutyramido-8-(naphthalen-1-ylmethyl)-6-oxo-2-propyl-9-(3-(trifluoromethyl)phenyl)-3,4-dihydro-2H,6H-pyrido[1,2-e][1,2,5]thiadiazine-4-carboxylic acid 1,1-dioxide] the IC50 [2] was 11.4 µM and the IC50 [3] was greater than 10 µM.

For `O=C(O)C1CN(Cc2ccccc2CO)c2c(-c3cccc(C(F)(F)F)c3)c(Cc3cccc4ccccc34)c(Cl)c(=O)n21` (centres unmarked) [Compound 181, 6-chloro-1-(2-(hydroxymethyl)benzyl)-7-(naphthalen-1-ylmethyl)-5-oxo-8-(3-(trifluoromethyl)phenyl)-1,2,3,5-tetrahydroimidazo[1,2-a]pyridine-3-carboxylic acid], the IC50 [2] was 2 µM and the IC50 [3] was 1.3 to 4.5 µM.

`O=C(O)C1CN(CC2CCOCC2)c2c(-c3cccc(C(F)(F)F)c3)c(Cc3cccc4ccccc34)c(Cl)c(=O)n21` (centres unmarked) [Compound 182, 6-chloro-7-(naphthalen-1-ylmethyl)-5-oxo-1-((tetrahydro-2H-pyran-4-yl)methyl)-8-(3-(trifluoromethyl)phenyl)-1,2,3,5-tetrahydroimidazo[1,2-a]pyridine-3-carboxylic acid] gave an IC50 [2] of 2.5 µM and an IC50 [3] of 1.3 to 4.5 µM.

For `O=C(O)C1CN(CCc2ccccc2)c2c(-c3cccc(C(F)(F)F)c3)c(Cc3cccc4ccccc34)c(Cl)c(=O)n21` (centres unmarked) [Compound 178, 6-chloro-7-(naphthalen-1-ylmethyl)-5-oxo-1-phenethyl-8-(3-(trifluoromethyl)phenyl)-1,2,3,5-tetrahydroimidazo[1,2-a]pyridine-3-carboxylic acid], the IC50 [2] was 0.8 µM and the IC50 [3] was less than 1.3 µM.

Work on `O=C(O)C1CN(Cc2ccc(CO)cc2)c2c(-c3cccc(C(F)(F)F)c3)c(Cc3cccc4ccccc34)c(Cl)c(=O)n21` (centres unmarked) [Compound 170, 6-chloro-1-(4-(hydroxymethyl)benzyl)-7-(naphthalen-1-ylmethyl)-5-oxo-8-(3-(trifluoromethyl)phenyl)-1,2,3,5-tetrahydroimidazo[1,2-a]pyridine-3-carboxylic acid] yielded an IC50 [2] of 2.2 µM and an IC50 [3] of 1.3 to 4.5 µM.

With `N#Cc1cccc(CN2CC(C(=O)O)n3c2c(-c2cccc(C(F)(F)F)c2)c(Cc2cccc4ccccc24)c(Cl)c3=O)c1` (centres unmarked) [Compound 168, 6-chloro-1-(3-cyanobenzyl)-7-(naphthalen-1-ylmethyl)-5-oxo-8-(3-(trifluoromethyl)phenyl)-1,2,3,5-tetrahydroimidazo[1,2-a]pyridine-3-carboxylic acid] the IC50 [2] was 1.3 µM and the IC50 [3] was 1.3 to 4.5 µM.

In the case of `CN(C)C(=O)C1CN(C)S(=O)(=O)c2c(-c3cccc(C(F)(F)F)c3)c(Cc3cccc4ccccc34)cc(=O)n21` (centres unmarked) [Compound 032, N,N-2-trimethyl-8-(naphthalen-1-ylmethyl)-6-oxo-9-(3-(trifluoromethyl)phenyl)-3,4-dihydro-2H,6H-pyrido[1,2-e][1,2,5]thiadiazine-4-carboxamide 1,1-dioxide], the IC50 [1] is reported as 1.3 to 4.5 µM and the IC50 [2] is reported as 3.3 µM.

`O=C(O)C1COc2c(-c3cccc(C(F)(F)F)c3)c(Cc3cccc4ccccc34)cc(=O)n21` (centres unmarked) [Compound 064, 7-(naphthalen-1-ylmethyl)-5-oxo-8-(3-(trifluoromethyl)phenyl)-2,3-dihydro-5H-oxazolo[3,2-a]pyridine-3-carboxylic acid] was tested, and the IC50 [1] was greater than 10 µM and the IC50 [2] was 45.3 µM.

With `O=C(O)C1CN(CCCO)c2c(-c3cccc(C(F)(F)F)c3)c(Cc3cccc4ccccc34)c(Cl)c(=O)n21` (centres unmarked) [Compound 197, 6-chloro-1-(3-hydroxypropyl)-7-(naphthalen-1-ylmethyl)-5-oxo-8-(3-(trifluoromethyl)phenyl)-1,2,3,5-tetrahydroimidazo[1,2-a]pyridine-3-carboxylic acid] the IC50 [2] was 19.3 µM and the IC50 [3] was greater than 10 µM.

`O=C(O)C1CSc2c(-c3cccc(C(F)(F)F)c3)c(Cc3cccc4ccccc34)c(CO)c(=O)n21` (centres unmarked) [Compound 057, 6-(hydroxymethyl)-7-(naphthalen-1-ylmethyl)-5-oxo-8-(3-(trifluoromethyl)phenyl)-2,3-dihydro-5H-thiazolo[3,2-a]pyridine-3-carboxylic acid] gave an IC50 [1] of 4.6 to 10 µM and an IC50 [2] of 7.1 µM.

For `CC1(C)Sc2c(-c3cccc(C(F)(F)F)c3)c(Cc3cccc4ccccc34)nc(=O)n2C1C(=O)O` (centres unmarked) [Compound 059, 2,2-dimethyl-7-(naphthalen-1-ylmethyl)-5-oxo-8-(3-(trifluoromethyl)phenyl)-2,3-dihydro-5H-thiazolo[3,2-c]pyrimidine-3-carboxylic acid], the IC50 [1] was greater than 10 µM and the IC50 [2] was 21.1 µM.

`Cn1c(=O)c2c(ncn2CCCCN2CC(C(=O)O)n3c(c(-c4cccc(C(F)(F)F)c4)c(Cc4cccc5ccccc45)cc3=O)S2(=O)=O)n(C)c1=O` (centres unmarked) [Compound 033, 2-(4-(1,3-dimethyl-2,6-dioxo-1,2,3,6-tetrahydro-7H-purin-7-yl)butyl)-8-(naphthalen-1-ylmethyl)-6-oxo-9-(3-(trifluoromethyl)phenyl)-3,4-dihydro-2H,6H-pyrido[1,2-e][1,2,5]thiadiazine-4-carboxylic acid 1,1-dioxide] was tested, and the IC50 [1] was 1.3 to 4.5 µM and the IC50 [2] was 3.3 µM.

In the case of `CC(C)CN1CC(C(=O)O)n2c1c(-c1cccc(C(F)(F)F)c1)c(Cc1cccc3ccccc13)c(Cl)c2=O` (centres unmarked) [Compound 164, 6-chloro-1-isobutyl-7-(naphthalen-1-ylmethyl)-5-oxo-8-(3-(trifluoromethyl)phenyl)-1,2,3,5-tetrahydroimidazo[1,2-a]pyridine-3-carboxylic acid], the IC50 [2] is reported as 0.9 µM and the IC50 [3] is reported as less than 1.3 µM.
